Experimental data as given in PMC8041284, “Tunable Methacrylamides for Covalent Ligand Directed Release Chemistry” (Journal of the American Chemical Society, 2021).

These compounds were tested against BTK (Homo sapiens, UniProt Q06187) (assay: biochemical). Settings: read-out: BTK inhibition (%).
Chain of BTK (Q06187 402-655 limits assumed): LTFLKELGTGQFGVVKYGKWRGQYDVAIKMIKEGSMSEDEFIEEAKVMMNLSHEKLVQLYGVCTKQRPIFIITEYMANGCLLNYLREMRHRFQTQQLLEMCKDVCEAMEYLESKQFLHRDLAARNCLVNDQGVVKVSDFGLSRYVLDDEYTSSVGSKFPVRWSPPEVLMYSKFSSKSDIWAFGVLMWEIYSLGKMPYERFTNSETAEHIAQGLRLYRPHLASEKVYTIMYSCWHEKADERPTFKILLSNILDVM

| SMILES | inhibition at 10 µM |
| --- | --- |
| CCC(=O)O[C@H]1CC[C@H]2[C@@H]3CC[C@H]4CC(=O)[C@H](C)C[C@]4(C)[C@H]3CC[C@]12C [PCM-0215061] | -14% |
| COC1=C[C@]23CCCN2CCc2cc4c(cc2[C@@H]3[C@@H]1O)OCO4 [PCM-0214978] | 0% |
| O=[N+]([O-])c1ncc[nH]1 [PCM-0094820] | 3.1% |

Same assay, conditions: read-out: BTK inhibition (%), 0.75 uM BTK, […] probe 3l, 15 min preincubation

| SMILES | inhibition at 10 µM |
| --- | --- |
| O=C(O)CCc1c[nH]c2ccccc12 [PCM-0215055] | -34.2% |
| CC(=O)OCc1ccccc1 [PCM-0216204] | 10.8% |
| COc1cccc(C(N)=O)c1 [PCM-0216109] | 2.3% |
| C#C[C@]1(O)CC[C@H]2[C@@H]3CCC4=CCCC[C@@H]4[C@H]3C(=C)C[C@@]21CC [PCM-0214824] | 27.2% |
| COc1cccc(/C=N/N(C(=O)C(F)(F)F)c2ccc(C)cc2C)c1 [PCM-0216073] | 13.9% |
| N[C@H]1C[C@@H]1c1ccccc1 [PCM-0095814] | -6.2% |
| Cc1cc(-c2ccc(CC(=O)Nc3ccc(-c4cccnc4)cc3)cc2)ccn1 [PCM-0095743] | -11.6% |
| CO[C@@H]1[C@@H](O[C@@H]2O[C@H](C)[C@@H](O[C@H]3C[C@@](C)(O)[C@@H](O)[C@H](C)O3)[C@H](N(C)C)[C@H]2O)[C@@H](CC=O)C[C@@H](C)[C@@H](O[C@H]2CC[C@H](N(C)C)[C@@H](C)O2)/C=C/C=C/C[C@@H](C)OC(=O)C[C@H]1OC(C)=O [PCM-0214867] | 14% |
| CC(=O)Oc1ccc(C(=C2CCCCC2)c2ccc(OC(C)=O)cc2)cc1 [PCM-0216241] | -3.9% |
| C[C@H](Cn1cnc2c(N)ncnc21)OCP(=O)(O)O [PCM-0090661] | -11.7% |
| CC1=CC(=O)NS(=O)(=O)O1 [PCM-0090549] | -14% |
| C[C@@H](N)C1CCC(C(=O)Nc2ccncc2)CC1 (stereo partly shown) [PCM-0094977] | -2.1% |
| COc1cc(O)c2c(=O)c(O[C@@H]3O[C@H](CO)[C@@H](O)[C@H](O)[C@H]3O)c(-c3ccc(O[C@@H]4O[C@H](CO)[C@@H](O)[C@H](O)[C@H]4O)cc3)oc2c1 [PCM-0216473] | 7.7% |
| O=C(/C=C/c1ccc(O)cc1)C1=C(O)[C@](O)([C@@H]2O[C@H](CO)[C@@H](O)[C@H](O)[C@H]2O)C(O)=C(/C=C2/C(=O)C(C(=O)/C=C/c3ccc(O)cc3)=C(O)[C@@](O)([C@@H]3O[C@H](CO)[C@@H](O)[C@H](O)[C@H]3O)C2=O)C1=O [PCM-0215966] | -1.5% |
| O=C(/C=C/c1ccc(O)cc1)c1ccc(O)cc1O [PCM-0065490] | 17.1% |
| CCN(CC)CCOC(=O)c1ccc(N)cc1 [PCM-0065363] | 3.9% |
| CCc1ccc(/C=C2/SC(=S)NC2=O)cc1 [PCM-0064568] | 46.2% |
| COc1ccc2c3c1O[C@H]1C[C@@H](O)C=C[C@@]31CCN(C)C2 [PCM-0086015] | -17.1% |
| COc1ccc(Cl)c(Nc2nc3ccccc3nc2NS(=O)(=O)c2cccc(NC(=O)C(C)(C)N)c2)c1 [PCM-0215473] | 24.1% |
| c1ccc(CNCc2ccc(CN3CCCNCCNCCCNCC3)cc2)nc1 [PCM-0215781] | -2.6% |
| O=c1c2cc(O)c(O)cc2oc2cc(O)c([C@@H]3O[C@H](CO)[C@@H](O)[C@H](O)[C@H]3O)c(O)c12 [PCM-0215004] | -14.8% |
| Cc1cccc(C(C)c2cnc[nH]2)c1C (stereo not shown) [PCM-0095548] | -14.8% |
| CCOC(=O)CC(=O)N1CCSC1COc1ccccc1OC (stereo not shown) [PCM-0090669] | -8.6% |
| C=C1c2cccc(O)c2C(O)=C2C(=O)[C@]3(O)C(O)=C(C(N)=O)C(=O)[C@@H](N(C)C)[C@@H]3[C@@H](O)[C@H]12 [PCM-0215189] | 17% |

| SMILES | inhibition at 10 µM |
| --- | --- |
| O=C(/C=C/c1cccc(S(=O)(=O)Nc2ccccc2)c1)NO [PCM-0095051] | 9% |
| NC(Cc1c[nH]c2ccc(O)cc12)C(=O)O (stereo not shown) [PCM-0094825] | -2.3% |
| CCOC(=O)c1cccc(N)c1 [PCM-0214922] | -2.3% |
| CC(=O)Oc1ccccc1C(=O)Nc1ncc([N+](=O)[O-])s1 [PCM-0090347] | 17.9% |
| CCN(CCCc1ccccc1)CCCc1ccccc1 [PCM-0085793] | -8.6% |
| CCN(CC)CCOc1ccc(C(=C(Cl)c2ccccc2)c2ccccc2)cc1 [PCM-0090069] | 13.2% |
| O=C(c1ccc(/C=C/c2n[nH]c3ccccc23)cc1)N1CCNCC1 [PCM-0095209] | 46.2% |
| CC(=O)OC/C=C/c1ccccc1 [PCM-0216207] | -14.7% |
| O=c1c(N=Nc2nccs2)c(-c2ccccc2)[nH]n1-c1nc(-c2ccccc2)cs1 [PCM-0215938] | 98.1% |
| CC(=O)Nc1cccc(-n2c(=O)n(C3CC3)c(=O)c3c(Nc4ccc(I)cc4F)n(C)c(=O)c(C)c32)c1 [PCM-0095350] | -10.3% |
| O=C(Oc1cc(S(=O)(=O)c2ccccc2)ccc1[N+](=O)[O-])c1ccc(Cl)cc1 [PCM-0004196] | -3.1% |
| CC(C)CC(=O)Nc1n[nH]c2c1CN(C(=O)C1CCN(C)CC1)C2(C)C [PCM-0095172] | 17.9% |
| CN(C)CC[C@H](CSc1ccccc1)Nc1ccc(S(=O)(=O)NC(=O)c2ccc(N3CCN(Cc4ccccc4-c4ccc(Cl)cc4)CC3)cc2)cc1[N+](=O)[O-] [PCM-0095734] | 19.3% |
| CC/C=C(\C(=O)N[C@@H]1C(=O)N2C(C(=O)OCOC(=O)C(C)(C)C)=C(COC(N)=O)CS[C@H]12)c1csc(N)n1 [PCM-0215081] | 8.6% |
| CO[C@H]1/C=C/O[C@@]2(C)Oc3c(C)c(O)c4c(O)c(cc(O)c4c3C2=O)NC(=O)/C(C)=C\C=C\[C@H](C)[C@H](O)[C@@H](C)[C@@H](O)[C@@H](C)[C@H](OC(C)=O)[C@@H]1C [PCM-0216568] | 22.4% |
| CC(Nc1nc(N2CCCC2)nc2ccccc12)c1ccccc1 (stereo not shown) [PCM-0215774] | -23.2% |
| Cc1c(OCC(F)(F)F)ccnc1C[S+]([O-])c1nc2ccccc2[nH]1 (stereo not shown) [PCM-0065586] | -3.9% |
| C/C=C1\[C@H]2C=C(C)C[C@]1(N)c1ccc(=O)[nH]c1C2 [PCM-0091027] | -24.7% |
| O=C(Nc1cccc2c(=O)cc(-c3nn[nH]n3)oc12)c1ccc(OCCCCc2ccccc2)cc1 [PCM-0095155] | 73.8% |
| O=C(NCCN1CCOCC1)c1ccc(Cl)cc1 [PCM-0064796] | -3.9% |
| C[C@@H]1CN(c2c(F)c(N)c3c(=O)c(C(=O)O)cn(C4CC4)c3c2F)C[C@H](C)N1 [PCM-0086271] | 2.3% |
| CN(C)CCCC1(c2ccc(F)cc2)OCc2cc(C#N)ccc21 (stereo not shown) [PCM-0064474] | -14.8% |
| C=CC(=O)N[C@H]1CCOC[C@H]1Nc1ncc2cc(-c3c(Cl)c(OC)cc(OC)c3Cl)ccc2n1 [PCM-0215807] | 22.1% |
| COc1cc(/C=C/C(=O)OC[C@H]2O[C@H](O[C@]3(CO)O[C@H](CO)[C@@H](O)[C@@H]3OC(=O)/C=C/c3cc(OC)c(O)c(OC)c3)[C@H](O)[C@@H](O)[C@@H]2O)cc(OC)c1O [PCM-0216306] | -6.2% |

| SMILES | inhibition at 10 µM |
| --- | --- |
| CO[C@H]1/C=C/O[C@@]2(C)Oc3c(C)c(O)c4c(O)c(c(/C=N/N5CCN(C6CCCC6)CC5)c(O)c4c3C2=O)NC(=O)/C(C)=C\C=C\[C@H](C)[C@H](O)[C@@H](C)[C@@H](O)[C@@H](C)[C@H](OC(C)=O)[C@@H]1C [PCM-0086116] | 43.6% |
| O=C1NC(=O)/C(=C/c2ccc3nccc(-c4ccncc4)c3c2)S1 [PCM-0094973] | 14.5% |
| O=c1[nH]c2ccccc2n1CCCN1CCC(n2c(=O)[nH]c3cc(Cl)ccc32)CC1 [PCM-0065112] | 5.4% |
| NC(=O)CC[C@@H](N)C(=O)O [PCM-0095186] | 6% |
| CCCCc1oc2ccc(NS(C)(=O)=O)cc2c1C(=O)c1ccc(OCCCN(CCCC)CCCC)cc1 [PCM-0095292] | 62.3% |
| CC1=C(/C=C/C(C)=C/C=C/C(C)=C/C(=O)O)C(C)(C)CCC1 [PCM-0065434] | -32.7% |
| CC(C)(C)c1ccc(S(=O)(=O)NCc2ccc(C(=O)Nc3cccnc3)cc2)cc1 [PCM-0215545] | -2.3% |
| Cc1ccc([C@@H]2O[C@H](CO)[C@@H](O)[C@H](O)[C@H]2O)cc1Cc1ccc(-c2ccc(F)cc2)s1 [PCM-0095519] | 7.6% |
| OC[C@@H](O)[C@@H](O)[C@H](O)[C@@H](O)CO [PCM-0090796] | -19.5% |
| CCn1c(=O)c(-c2ccn[nH]2)cc2c(C)nc(N)nc21 [PCM-0215577] | 7.6% |
| C[C@@]1(c2cc(-c3cncnc3)c(F)cc2F)CCSC(N)=N1 [PCM-0095088] | -25.7% |
| Cc1cccc(-c2nn3c(c2-c2ccnc4ccc(C(N)=O)cc24)CCC3)n1 [PCM-0095269] | 11.7% |
| O=C(Cn1nnc(-c2ccncc2)c1-c1ccccc1)Nc1ccc(-c2ccccc2)cn1 [PCM-0216012] | 39.4% |
| CCC1C/C(=C\c2cccnc2)C(=O)/C(=C/c2cccnc2)C1 (stereo not shown) [PCM-0215528] | 10% |
| COc1ccc(-c2cc(=O)c3c(O)cc(O[C@@H]4O[C@H](CO[C@@H]5O[C@@H](C)[C@H](O)[C@@H](O)[C@H]5O)[C@@H](O)[C@H](O)[C@H]4O)cc3o2)cc1O [PCM-0087491] | -5.1% |
| CCCCCCCCCCCC(=O)O [PCM-0214847] | -69.3% |
| O=C(O)c1ccc(O)c(O)c1 [PCM-0215076] | 2.8% |
| CC(C)n1ncnc1-c1cn2c(n1)-c1ccc(O[C@@H](C)C(N)=O)cc1OCC2 [PCM-0215832] | -8.3% |
| O=c1[nH]c2ccccc2n1C1CCN(Cc2ccc(-c3[nH]c4cc5ncnc5cc4nc3-c3ccccc3)cc2)CC1 [PCM-0215535] | 18.6% |
| CC(C)(F)C[C@H](N[C@@H](c1ccc(-c2ccc(S(C)(=O)=O)cc2)cc1)C(F)(F)F)C(=O)NC1(C#N)CC1 [PCM-0094912] | -23.3% |
| COc1cc(N2CCC(N(C)C)CC2)ccc1Nc1ncc(Cl)c(Nc2ccccc2P(C)(C)=O)n1 [PCM-0215177] | 64.8% |
| CC1(C)CC[C@]2(C(=O)O[C@@H]3O[C@H](CO)[C@@H](O)[C@H](O)[C@H]3O)CC[C@]3(C)C(=CC[C@@H]4[C@@]5(C)CC[C@H](O[C@@H]6O[C@H](C(=O)O)[C@@H](O)[C@H](O)[C@H]6O)C(C)(C)[C@@H]5CC[C@]43C)[C@@H]2C1 [PCM-0216404] | 3.1% |
